ChEMBL document CHEMBL5291721, “A preclinical secondary pharmacology resource illuminates target-adverse drug reaction associations of marketed drugs” (Nat Commun, 2023)

Key:
[1] = biological target: Histamine H2 receptor (Homo sapiens, UniProt P25021); type: functional, cell-based
[2] = biological target: Gamma-aminobutyric acid receptor subunit alpha-1 (Rattus norvegicus, UniProt P62813)
[3] = biological target: T1, Equilibrative nucleoside transporter 1 (Homo sapiens, UniProt Q99808)
T1 sequence (Q99808 whole entry): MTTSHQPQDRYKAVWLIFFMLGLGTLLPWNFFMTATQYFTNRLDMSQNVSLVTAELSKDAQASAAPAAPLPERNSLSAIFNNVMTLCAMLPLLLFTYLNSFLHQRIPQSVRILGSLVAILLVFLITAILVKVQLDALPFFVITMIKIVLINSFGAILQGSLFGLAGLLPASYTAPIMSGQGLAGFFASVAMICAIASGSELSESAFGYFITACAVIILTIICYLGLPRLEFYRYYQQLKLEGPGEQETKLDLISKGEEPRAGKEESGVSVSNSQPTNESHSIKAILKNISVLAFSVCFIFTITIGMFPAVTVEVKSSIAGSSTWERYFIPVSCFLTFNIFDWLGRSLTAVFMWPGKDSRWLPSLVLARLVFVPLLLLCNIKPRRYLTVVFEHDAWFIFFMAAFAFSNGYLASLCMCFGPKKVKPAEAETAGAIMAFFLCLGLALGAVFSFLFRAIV

[4] = biological target: T2, B2 bradykinin receptor (Homo sapiens, UniProt P30411)
T2 sequence (P30411 whole entry): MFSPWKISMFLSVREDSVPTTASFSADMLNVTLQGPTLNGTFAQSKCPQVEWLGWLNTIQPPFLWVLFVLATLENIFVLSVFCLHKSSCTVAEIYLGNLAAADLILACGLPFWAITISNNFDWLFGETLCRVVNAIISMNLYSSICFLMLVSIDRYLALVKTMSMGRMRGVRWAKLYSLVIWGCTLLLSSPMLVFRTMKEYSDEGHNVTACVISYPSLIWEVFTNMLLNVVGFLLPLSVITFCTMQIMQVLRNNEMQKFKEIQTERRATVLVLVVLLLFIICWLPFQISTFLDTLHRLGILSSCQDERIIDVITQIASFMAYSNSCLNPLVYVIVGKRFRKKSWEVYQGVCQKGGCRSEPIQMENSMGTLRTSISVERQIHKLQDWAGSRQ

[5] = biological target: T3, Alpha-1A adrenergic receptor (Homo sapiens, UniProt P35348); type: functional, cell-based
T3 sequence (P35348 whole entry): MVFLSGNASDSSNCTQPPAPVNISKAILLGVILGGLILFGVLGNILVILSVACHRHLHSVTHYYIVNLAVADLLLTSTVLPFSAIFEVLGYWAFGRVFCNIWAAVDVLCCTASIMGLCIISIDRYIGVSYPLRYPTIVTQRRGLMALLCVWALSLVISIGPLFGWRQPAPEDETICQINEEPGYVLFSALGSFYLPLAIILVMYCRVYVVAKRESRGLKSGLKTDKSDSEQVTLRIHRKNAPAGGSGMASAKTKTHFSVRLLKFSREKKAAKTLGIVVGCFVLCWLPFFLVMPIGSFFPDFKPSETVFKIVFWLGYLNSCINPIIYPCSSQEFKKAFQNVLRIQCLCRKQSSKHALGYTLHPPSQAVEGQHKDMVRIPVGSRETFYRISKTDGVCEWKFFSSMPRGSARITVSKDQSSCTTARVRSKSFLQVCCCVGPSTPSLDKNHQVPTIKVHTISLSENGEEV

[6] = biological target: T4, Alpha-2C adrenergic receptor (Homo sapiens, UniProt P18825); type: functional
T4 sequence (P18825 whole entry): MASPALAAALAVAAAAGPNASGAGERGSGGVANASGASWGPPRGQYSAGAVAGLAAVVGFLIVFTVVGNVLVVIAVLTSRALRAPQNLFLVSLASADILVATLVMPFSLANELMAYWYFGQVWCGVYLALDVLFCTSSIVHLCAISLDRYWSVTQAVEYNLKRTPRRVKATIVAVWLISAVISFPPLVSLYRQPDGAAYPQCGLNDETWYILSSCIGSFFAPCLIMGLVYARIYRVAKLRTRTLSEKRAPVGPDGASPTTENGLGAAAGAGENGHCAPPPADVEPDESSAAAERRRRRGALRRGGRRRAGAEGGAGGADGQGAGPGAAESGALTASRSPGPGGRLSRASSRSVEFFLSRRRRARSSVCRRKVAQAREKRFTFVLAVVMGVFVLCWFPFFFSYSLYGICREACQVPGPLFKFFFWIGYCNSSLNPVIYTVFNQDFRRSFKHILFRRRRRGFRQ

[7] = biological target: T5, Alpha-2B adrenergic receptor (Homo sapiens, UniProt P18089)
T5 sequence (P18089 whole entry): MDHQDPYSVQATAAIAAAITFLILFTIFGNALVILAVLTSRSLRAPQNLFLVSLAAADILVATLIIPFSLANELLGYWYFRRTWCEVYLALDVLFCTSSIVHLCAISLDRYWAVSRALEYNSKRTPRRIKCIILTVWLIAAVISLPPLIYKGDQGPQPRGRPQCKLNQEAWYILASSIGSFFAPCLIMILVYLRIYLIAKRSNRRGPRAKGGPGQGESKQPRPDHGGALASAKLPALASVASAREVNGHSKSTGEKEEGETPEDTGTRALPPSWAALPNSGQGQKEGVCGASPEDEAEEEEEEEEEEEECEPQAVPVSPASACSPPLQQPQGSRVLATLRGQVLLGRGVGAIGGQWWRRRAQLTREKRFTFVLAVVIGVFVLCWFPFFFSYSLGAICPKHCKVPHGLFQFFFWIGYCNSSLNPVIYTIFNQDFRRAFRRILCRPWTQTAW

[8] = biological target: T6, Muscarinic acetylcholine receptor M1 (Homo sapiens, UniProt P11229); type: functional
T6 sequence (P11229 whole entry): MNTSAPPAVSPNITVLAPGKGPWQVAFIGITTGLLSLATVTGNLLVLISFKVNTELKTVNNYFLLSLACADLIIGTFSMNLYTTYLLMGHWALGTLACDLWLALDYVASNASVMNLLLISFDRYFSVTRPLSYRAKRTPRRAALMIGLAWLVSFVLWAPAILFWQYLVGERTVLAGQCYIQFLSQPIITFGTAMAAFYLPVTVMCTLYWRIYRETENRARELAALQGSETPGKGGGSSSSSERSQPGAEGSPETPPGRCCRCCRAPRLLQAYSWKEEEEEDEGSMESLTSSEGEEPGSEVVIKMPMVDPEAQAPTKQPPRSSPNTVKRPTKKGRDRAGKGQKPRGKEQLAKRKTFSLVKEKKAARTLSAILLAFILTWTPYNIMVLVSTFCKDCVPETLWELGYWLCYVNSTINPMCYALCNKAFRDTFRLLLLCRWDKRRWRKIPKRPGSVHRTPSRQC

[9] = biological target: Histamine H3 receptor (Homo sapiens, UniProt Q9Y5N1)
Histamine H3 receptor, sequence (Q9Y5N1 whole entry): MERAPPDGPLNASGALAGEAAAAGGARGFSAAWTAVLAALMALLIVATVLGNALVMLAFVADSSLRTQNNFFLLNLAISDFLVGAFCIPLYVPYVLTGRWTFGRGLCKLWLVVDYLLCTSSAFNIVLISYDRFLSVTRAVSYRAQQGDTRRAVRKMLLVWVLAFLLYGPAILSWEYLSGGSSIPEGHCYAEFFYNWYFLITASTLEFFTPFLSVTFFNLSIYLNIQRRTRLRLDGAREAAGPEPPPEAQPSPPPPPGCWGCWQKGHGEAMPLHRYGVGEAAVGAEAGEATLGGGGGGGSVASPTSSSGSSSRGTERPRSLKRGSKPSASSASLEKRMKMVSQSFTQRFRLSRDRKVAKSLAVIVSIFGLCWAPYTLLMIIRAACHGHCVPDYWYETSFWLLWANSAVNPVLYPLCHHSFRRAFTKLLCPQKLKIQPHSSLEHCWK

[10] = biological target: D(1A) dopamine receptor (Homo sapiens, UniProt P21728); type: functional, cell-based
D(1A) dopamine receptor, sequence (P21728 whole entry): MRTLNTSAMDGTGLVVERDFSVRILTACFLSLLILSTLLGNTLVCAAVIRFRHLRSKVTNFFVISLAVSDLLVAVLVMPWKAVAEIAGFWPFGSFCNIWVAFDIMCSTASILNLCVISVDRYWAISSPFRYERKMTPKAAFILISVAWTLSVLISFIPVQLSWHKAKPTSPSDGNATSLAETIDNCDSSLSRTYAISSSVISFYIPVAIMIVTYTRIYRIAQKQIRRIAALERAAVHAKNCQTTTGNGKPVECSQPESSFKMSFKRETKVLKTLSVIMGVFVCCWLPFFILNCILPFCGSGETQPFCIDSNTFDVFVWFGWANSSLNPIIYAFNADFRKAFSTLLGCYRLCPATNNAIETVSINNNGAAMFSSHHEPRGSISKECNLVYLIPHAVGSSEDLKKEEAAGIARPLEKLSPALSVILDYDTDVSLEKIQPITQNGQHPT
Also: assay procedure not described here.

Histamine H2 receptor, sequence (P25021 whole entry): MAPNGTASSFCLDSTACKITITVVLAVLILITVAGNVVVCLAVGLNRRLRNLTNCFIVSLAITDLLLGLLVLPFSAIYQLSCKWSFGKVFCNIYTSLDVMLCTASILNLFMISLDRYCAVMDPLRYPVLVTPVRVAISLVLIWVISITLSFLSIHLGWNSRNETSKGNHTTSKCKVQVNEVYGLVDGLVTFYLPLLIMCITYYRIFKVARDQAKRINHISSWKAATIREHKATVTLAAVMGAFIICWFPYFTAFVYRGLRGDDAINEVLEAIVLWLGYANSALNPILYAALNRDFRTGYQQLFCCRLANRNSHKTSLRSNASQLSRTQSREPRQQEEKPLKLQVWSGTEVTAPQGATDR
Gamma-aminobutyric acid receptor subunit alpha-1, sequence (P62813 whole entry): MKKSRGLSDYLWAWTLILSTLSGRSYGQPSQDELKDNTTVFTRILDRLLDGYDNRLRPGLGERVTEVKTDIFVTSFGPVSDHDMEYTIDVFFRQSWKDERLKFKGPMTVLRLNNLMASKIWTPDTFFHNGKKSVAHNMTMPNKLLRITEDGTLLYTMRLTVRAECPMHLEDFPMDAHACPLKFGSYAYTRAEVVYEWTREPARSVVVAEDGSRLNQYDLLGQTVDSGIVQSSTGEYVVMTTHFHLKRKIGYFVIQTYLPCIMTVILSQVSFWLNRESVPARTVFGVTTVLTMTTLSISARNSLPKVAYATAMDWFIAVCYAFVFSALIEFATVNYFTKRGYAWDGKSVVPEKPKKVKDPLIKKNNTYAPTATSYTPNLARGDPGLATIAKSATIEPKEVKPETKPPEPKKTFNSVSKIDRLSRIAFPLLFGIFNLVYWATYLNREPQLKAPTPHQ

- AC50 [1]: > 30 µM
- AC50 [2]: > 30 µM
- AC50 [3]: 21 µM
- AC50 [4]: > 30 µM
- AC50 [5]: > 30 µM
- AC50 [6]: 21 µM
- AC50 [7]: > 30 µM
- AC50 [8]: > 30 µM
- AC50 [9]: > 30 µM
- AC50 [10]: > 30 µM
Structure (SMILES): COc1ccc2nc3cc(Cl)ccc3c(Nc3cc(CN4CCCC4)c(O)c(CN4CCCC4)c3)c2n1 [PYRONARIDINE]
